Measured values: article PMC8100298, “Histone deacetylase inhibitor resminostat in combination with sorafenib counteracts platelet-mediated pro-tumoral effects in hepatocellular carcinoma” (Scientific Reports, 2021)
Like-named read-outs stand apart in the source and are kept apart here.

Key:
Assay in all cases: Efficacy screening assay
Assay type in all cases: cell-based
[1] = system: 5637 (HTB-9)
Description: (§1) labelled fluorogenic peptide substrates: fluorogenic peptide from p53 residues 379-382 (RHKK(Ac)AMC) for HDAC1, 2, 3, 6, 10, 11; fluorogenic HDAC Class IIa Substrate (Trifluoro acetyl Lysine, Ac-LGK(TFA)-AMC) for HDAC 4, 5, 7, 9; and fluorogenic peptide from p53 residues 379-382 (RHK(Ac)K(Ac)AMC) for HDAC8. 1 mg/mL BSA and DMSO was added to the assay buffer (50 mM Tris-HCl, pH 8.0; 137 mM NaCl; 2.7 mM KCl; 1 mM MgCl2) prior to use. In a two-step reaction, the substrate with the acetylated lysine side chain was incubated for with a sample containing HDAC activity to p roduce the deacetylated products: 1 h at 30°C for HDAC1, 2, 3 and 6; 30 min at RT for HDAC4, 5, 7 and 9; 2 h at 30°C for HDAC8, 10 and 11. In a second step, the deacetylated products were digested by the addition of developer for 1 h at 30°C to produce the fluorescent signal proportional to the amount of deacetylated substrates and the fluorescence was measured using an Envision plate reader at 355 nm (excitation) and 460 nm (emission). A kinetic measurement was performed for ~1 h with 5 min intervals and d ata from the final time point were analysed. IC50 values and curve fits were obtained using GraphPad Softwar e.
(§2) The experiment was performed by Oncolead GmbH & Co. KG (Karlsfeld , Germany), based on a standardized screening procedure . Cell lines were purchased directly from the ATCC, NCI and DSMZ cell line c ollections. Cells used for the study had undergone less than 20 passages. To ensure the absence of potential contamination and wrong assignment, all cell lines were tested using a whole genome assay (Agilent, USA). All cell lines were grown as recommended by the suppliers and with addition of 100 U/mL penicillin G and 100 µg/mL; streptomycin. Cell growth and treatments were performed in Nunclon D 96 -well plates (NUNC, Germany). The optimal seeding density for each cell line was determined to ensure exponential growth for the duration of the experiment. All cells growing without anti-cancer agents were sub-conﬂuent by the end of the treatment, as determined by visual inspection.
(§3) After an initial 24 h pre-growth period, the compounds were added. The vehicle concentration […]
(§4) was 0.1% DMSO. After incubation at 37°C for 72 h, the culture medium was aspirated, and the cells were precipitated by the addition of 10% trichloroacetic acid (Sigma-Aldrich, Missouri, US). After overnight incubation at 4°C, the plates were washed three times with deionized water. The precipitates were then stained with SRB (0.4% wt/v sulforhodamine B solution in 1% acetic acid, Sigma-Aldrich, Missouri, US). Afterwards, the plates were washed six times with 1% acetic acid to remove unbound stain. After drying the plates at room temperature, the bound SRB was solubilized with 10 mM Tris base and the optical density was measured at 520 nm using a Victor2 plate reader (Perkin Elmer, Germany). Blank OD values were subtracted from mean OD values for each concentration. The nonlinear curve ﬁtting and EC50 calculations were per formed using XLﬁt and algorithm “205” (ID Business […]
(§5) For cell-based and other in vitro assays, data are presented as data mean ± SD of at least […]
(§6) For the orthotopic mouse model, data are presented as mean + SEM. For statistical analysis, one-way ANOVA and multiple comparison (Dunnett) was performed for compound treatments compared to vehicle control. The adjusted p-values with 95% confidence interval were reported as significant. For comparison of EC50 values in Figure 1F, one-way ANOVA with multiple comparison testing (Tukey) was performed. Multiplicity adjusted p -values for the EC50 with sorafenib versus resminostat for each cell line and comparison between cell lines for sorafenib are presented (95% confidence interval for significance testing). For comparison of EC50 data in Figure 2B, one-way ANOVA with multiple comparison testing (Tukey) was performed. Multiplicity adjusted p-values with 95% confidence interval was applied. For the […]

[2] = system: SKMEL28; details: Homo sapiens, SK-MEL-28, SKMEL28, skin, 72 h
Description: as §1, §2, §3, §4, §5, §6

[3] = system: HepG2; details: Homo sapiens, HepG2, 72 h, HEPG2, liver
Description: as §1, §2, §3, §4, §5, §6

[4] = system: SKOV3; details: SKOV3, ovary
Description: as §1, §2, §3, §4, §5, §6

[5] = system: DLD1; details: Homo sapiens, DLD-1, DLD1, colon, 72 h
Description: as §1, §2, §3, §4, §5, §6

[6] = system: SW620; details: SW620, colon
Description: as §1, §2, §3, §4, §5, §6

[7] = system: RD; details: 72 h, muscle
Description: as §2, §3, §4
(§7) For comparison of EC50 values in Figure 1F, one-way ANOVA with multiple comparison testing (Tukey) was performed. Multiplicity adjusted p -values for the EC50 with sorafenib versus resminostat for each cell line and comparison between cell lines for sorafenib are presented (95% confidence interval for significance testing). For comparison of EC50 data in Figure 2B, one-way ANOVA with multiple comparison testing (Tukey) was performed. Multiplicity adjusted p-values with 95% confidence interval was applied. For the invasion assays in Figure 4, one-way ANOVA with multiple comparison testing (Tukey) was performed. Multiplicity adjusted p-values with 95% confidence interval was applied. The adjusted p-values comparing vehicle control without vs. with platelets and compound

[8] = system: PANC1; details: PANC1, pancreas
Description: as §2, §3, §4, §7

[9] = system: PLCPRF5; details: Homo sapiens, PLC-PRF-5, PLCPRF5, liver, 72 h
Description: as §2, §3, §4, §7

[10] = log of EC50, negative, read-out: log(EC50) (converted)

## CN(C)Cc1ccc(S(=O)(=O)n2ccc(/C=C/C(=O)NO)c2)cc1 [resminostat, Resminostat]
[1]; 72 h, bladder, log of EC50, negative, read-out: log(EC50) (converted)
  EC50: 1120 nM
[1]; 72 h, bladder, read-out: EC50
  EC50: 1130 nM
[1]; bladder, 72 h, read-out: EC50
  EC50: 1130 nM
[2]; [10]
  EC50: 3.31 µM
[2]; read-out: EC50
  EC50: 3.34 µM
[3]; [10]
  EC50: 501 nM
[3]; read-out: EC50
  EC50: 504 nM
[4]; Homo sapiens, SK-OV-3, 72 h, log of EC50, negative, read-out: log(EC50) (converted)
  EC50: 3.72 µM
[4]; Homo sapiens, SK-OV-3, 72 h, read-out: EC50
  EC50: 3.69 µM
[4]; 72 h, read-out: EC50
  EC50: 3.69 µM
[5]; [10]
  EC50: 1950 nM
[5]; read-out: EC50
  EC50: 1950 nM
[6]; Homo sapiens, SW-620, 72 h, log of EC50, negative, read-out: log(EC50) (converted)
  EC50: 1290 nM
[6]; Homo sapiens, SW-620, 72 h, read-out: EC50
  EC50: 1270 nM
[6]; 72 h, read-out: EC50
  EC50: 1270 nM
[7]; Homo sapiens, log of EC50, negative, read-out: log(EC50) (converted)
  EC50: 1550 nM
[7]; Homo sapiens, read-out: EC50
  EC50: 1530 nM
[7]; read-out: EC50
  EC50: 1530 nM
[8]; Homo sapiens, PANC-1, 72 h, log of EC50, negative, read-out: log(EC50) (converted)
  EC50: 6.76 µM
[8]; Homo sapiens, PANC-1, 72 h, read-out: EC50
  EC50: 6.79 µM
[8]; 72 h, read-out: EC50
  EC50: 6.79 µM
[9]; [10]
  EC50: 3.39 µM
[9]; read-out: EC50
  EC50: 3.42 µM
